Experiments:
[1] = Effect of food on pharmacokinetics in healthy subjects; type: in vivo, human; details: high-fat and high-calorie meal
QTc interval = details: 187 patients with cancer
[2] = Excretion after single oral dose of radiolabeled erdafitinib; type: in vivo

COc1cc(OC)cc(N(CCNC(C)C)c2ccc3ncc(-c4cnn(C)c4)nc3c2)c1 [erdafitinib, N-(3,5-dimethoxy-phenyl)-N′-(1-methylethyl)-N-[3-(1-methyl-1H-pyrazol-4-yl)quinoxalin-6-yl]ethane-1,2-diamine]
effect of food on pharmacokinetics [1]: No clinically meaningful differences
effect on the QTc interval (QTc interval): no large effect (i.e., >20 ms)
dose recovered in feces [2]: approximately 69%
dose recovered in feces as unchanged [2]: 19%
dose recovered in urine [2]: 19%
dose recovered in urine as unchanged [2]: 13%

— US12691112B2, “FGFR tyrosine kinase inhibitors for the treatment of urothelial carcinoma” (Janssen Pharmaceutica NV, priority 2019, dated 2026)
